Key:
Type in all cases: in vivo, Wistar rats
[1] = system: potassium oxonate and xanthine-induced hyperuricemic rats; assay: serum uric acid levels in hyperuricemic rats; conditions: oral gavage once daily for 14 days, vs model group (group B)
Experimental: (§1) 48 healthy specific pathogen-free (SPF) male Wistar rats (7 weeks, body weight: (200±20) g) were selected. In order to acclimate to a new environment, the 48 male rats were maintained in the animal house with the temperature of 22° C., the humidity of 10% to 60%, and 12 h/12 h light/dark cycle, and fed with standard diet and water ad libitum for 1 week. After the 1 week of acclimating, all experimental rats were randomly assigned to the following 6 groups with 8 rats per group: a control group (group A), a model group (group B), a Lactiplantibacillus plantarum strain BL-17 treated group (group C), a galacto-oligosaccharide-adenylic acid treated group (group D), a combination treated group (group E), and an allopurinol intervention treated group (positive control) (group F). […]
(§2) At the late stage of the experiment, fresh feces of the rats were collected and frozen in a −80° C. refrigerator. […] After being collected, the liver tissue was immediately rinsed with pre-cooled normal saline to remove blood, rapidly frozen in liquid nitrogen and then frozen at −80° C., and subsequently homogenized into liver homogenate, and then relevant indicators were determined. […]

XOD = assay: activity of XOD in serum and liver tissues of hyperuricemic rats; conditions: oral gavage once daily for 14 days, vs model group
Experimental: as §1, §2

[2] = system: potassium oxonate and xanthine-induced hyperuricemic rats; assay: urinary uric acid level in hyperuricemic rats; conditions: oral gavage once daily for 14 days, vs model group (group B)
Experimental: as §1

[3] = system: potassium oxonate and xanthine-induced hyperuricemic rats; assay: serum creatinine levels in hyperuricemic rats; conditions: oral gavage once daily for 14 days, vs model group
Experimental: as §1, §2

SMILES: Oc1ncnc2[nH]ncc12 [allopurinol]
- serum uric acid concentration compared with model group [1]: decrease
- activities of XOD in serum and liver compared with model group (XOD): decrease to varying degrees
- urinary uric acid levels compared with model group [2]: decrease to urinary uric acid levels in rats of the control group
- serum creatinine levels compared with hyperuricemia model group [3]: decrease

— patent US12391913B2, “Lactiplantibacillus plantarum strain for alleviating hyperuricemia and combination and use thereof” (Northeast Agricultural University, priority 2023, dated 2025)
